Results as given in PubChem BioAssay (NCI).
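Dose response: 5 concentrations. Exposure: 48 h. Format: 96-well plates. Endpoint: linear interpolation; highest concentration if not reached. Here, GI50 denotes the concentration required for 50% inhibition of growth. TGI denotes the concentration required for complete inhibition of growth.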

Assays:
Assay in all cases: growth of human tumour cells (NCI), 48 h
786-0 renal = tested on: 786-0 renal
A498 renal = tested on: A498 renal
A549 NSCLC = tested on: A549 NSCLC
ACHN renal = tested on: ACHN renal
BT-549 breast = tested on: BT-549 breast
CAKI-1 renal = tested on: CAKI-1 renal
CCRF-CEM leukemia = tested on: CCRF-CEM leukemia
COLO 205 colon = tested on: COLO 205 colon
DU-145 prostate = tested on: DU-145 prostate
EKVX NSCLC = tested on: EKVX NSCLC
HCC-2998 colon = tested on: HCC-2998 colon
HCT-116 colon = tested on: HCT-116 colon
HCT-15 colon = tested on: HCT-15 colon
HL-60(TB) leukemia = tested on: HL-60(TB) leukemia
HOP-62 NSCLC = tested on: HOP-62 NSCLC
HOP-92 NSCLC = tested on: HOP-92 NSCLC
HS 578T breast = tested on: HS 578T breast
HT29 colon = tested on: HT29 colon
IGROV1 ovarian = tested on: IGROV1 ovarian
K-562 leukemia = tested on: K-562 leukemia
KM12 colon = tested on: KM12 colon
LOX IMVI melanoma = tested on: LOX IMVI melanoma
M14 melanoma = tested on: M14 melanoma
MALME-3M melanoma = tested on: MALME-3M melanoma
MCF7 breast = tested on: MCF7 breast
MDA-MB-231 breast = tested on: MDA-MB-231 breast
MDA-MB-435 = tested on: MDA-MB-435
MOLT-4 leukemia = tested on: MOLT-4 leukemia
NCI-H226 lung = tested on: NCI-H226 lung
NCI-H23 lung = tested on: NCI-H23 lung
NCI-H460 lung = tested on: NCI-H460 lung
NCI-H522 lung = tested on: NCI-H522 lung
NCI/ADR-RES ovarian = tested on: NCI/ADR-RES ovarian
OVCAR-3 ovarian = tested on: OVCAR-3 ovarian
OVCAR-4 ovarian = tested on: OVCAR-4 ovarian
OVCAR-5 ovarian = tested on: OVCAR-5 ovarian
OVCAR-8 ovarian = tested on: OVCAR-8 ovarian
PC-3 prostate = tested on: PC-3 prostate
RPMI-8226 leukemia = tested on: RPMI-8226 leukemia
RXF 393 renal = tested on: RXF 393 renal
SF-268 CNS = tested on: SF-268 CNS
SF-295 CNS = tested on: SF-295 CNS
SF-539 CNS = tested on: SF-539 CNS
SK-MEL-2 melanoma = tested on: SK-MEL-2 melanoma
SK-MEL-28 melanoma = tested on: SK-MEL-28 melanoma
SK-MEL-5 melanoma = tested on: SK-MEL-5 melanoma
SK-OV-3 ovarian = tested on: SK-OV-3 ovarian
SN12C renal = tested on: SN12C renal
SNB-19 CNS = tested on: SNB-19 CNS
SNB-75 CNS = tested on: SNB-75 CNS
SW-620 colon = tested on: SW-620 colon
T-47D breast = tested on: T-47D breast
TK-10 renal = tested on: TK-10 renal
U251 CNS = tested on: U251 CNS
UACC-257 melanoma = tested on: UACC-257 melanoma
UACC-62 melanoma = tested on: UACC-62 melanoma
UO-31 renal = tested on: UO-31 renal

COc1cc(/C=N/NC(=O)c2ccc(C(F)(F)F)nc2Nc2ccc(Cl)cc2C)ccc1O
GI50 (786-0 renal): 2.64 µM
TGI (786-0 renal): 9.93 µM
GI50 (A498 renal): 3.1 µM
TGI (A498 renal): 14.5 µM
GI50 (A549 NSCLC): 3.54 µM
TGI (A549 NSCLC): 15.1 µM
GI50 (ACHN renal): 3.06 µM
TGI (ACHN renal): 13.7 µM
GI50 (BT-549 breast): 1.34 µM
TGI (BT-549 breast): 9.69 µM
GI50 (CAKI-1 renal): 2.23 µM
TGI (CAKI-1 renal): 10.8 µM
GI50 (CCRF-CEM leukemia): 0.416 µM
TGI (CCRF-CEM leukemia): 3.12 µM
GI50 (COLO 205 colon): 3.25 µM
TGI (COLO 205 colon): 10.4 µM
GI50 (DU-145 prostate): 4.27 µM
TGI (DU-145 prostate): 16.3 µM
GI50 (EKVX NSCLC): 1.06 µM
TGI (EKVX NSCLC): 12.4 µM
GI50 (HCC-2998 colon): 1.98 µM
TGI (HCC-2998 colon): 8.45 µM
GI50 (HCT-116 colon): 2.95 µM
TGI (HCT-116 colon): 12.7 µM
GI50 (HCT-15 colon): 0.987 µM
TGI (HCT-15 colon): 10.4 µM
GI50 (HL-60(TB) leukemia): 1.7 µM
TGI (HL-60(TB) leukemia): 4.41 µM
GI50 (HOP-62 NSCLC): 3.78 µM
TGI (HOP-62 NSCLC): 19.7 µM
GI50 (HOP-92 NSCLC): 1.59 µM
TGI (HOP-92 NSCLC): 7.58 µM
GI50 (HS 578T breast): 3.53 µM
TGI (HS 578T breast): 16.5 µM
GI50 (HT29 colon): 4.45 µM
TGI (HT29 colon): 16.2 µM
GI50 (IGROV1 ovarian): 0.838 µM
TGI (IGROV1 ovarian): 7.02 µM
GI50 (K-562 leukemia): 1.31 µM
TGI (K-562 leukemia): 7.17 µM
GI50 (KM12 colon): 2.23 µM
TGI (KM12 colon): 7.16 µM
GI50 (LOX IMVI melanoma): 1.36 µM
TGI (LOX IMVI melanoma): 11.5 µM
GI50 (M14 melanoma): 3.76 µM
TGI (M14 melanoma): 14.6 µM
GI50 (MALME-3M melanoma): 2.19 µM
TGI (MALME-3M melanoma): 10.9 µM
GI50 (MCF7 breast): 2.02 µM
TGI (MCF7 breast): 11.6 µM
GI50 (MDA-MB-231 breast): 0.939 µM
TGI (MDA-MB-231 breast): 10.3 µM
GI50 (MDA-MB-435): 3.08 µM
TGI (MDA-MB-435): 11 µM
GI50 (MOLT-4 leukemia): 0.554 µM
TGI (MOLT-4 leukemia): 2.75 µM
GI50 (NCI-H226 lung): 1.28 µM
TGI (NCI-H226 lung): 5.01 µM
GI50 (NCI-H23 lung): 3.63 µM
TGI (NCI-H23 lung): 16.7 µM
GI50 (NCI-H460 lung): 2.65 µM
TGI (NCI-H460 lung): 11.7 µM
GI50 (NCI-H522 lung): 3.31 µM
TGI (NCI-H522 lung): 14.2 µM
GI50 (NCI/ADR-RES ovarian): 2.66 µM
TGI (NCI/ADR-RES ovarian): 9.97 µM
GI50 (OVCAR-3 ovarian): 1.74 µM
TGI (OVCAR-3 ovarian): 13 µM
GI50 (OVCAR-4 ovarian): 1.54 µM
TGI (OVCAR-4 ovarian): 17 µM
GI50 (OVCAR-5 ovarian): 2.9 µM
TGI (OVCAR-5 ovarian): 15.6 µM
GI50 (OVCAR-8 ovarian): 1.6 µM
TGI (OVCAR-8 ovarian): 13.5 µM
GI50 (PC-3 prostate): 1.89 µM
TGI (PC-3 prostate): 9.87 µM
GI50 (RPMI-8226 leukemia): 2.11 µM
TGI (RPMI-8226 leukemia): 6.1 µM
GI50 (RXF 393 renal): 3.2 µM
TGI (RXF 393 renal): 14.3 µM
GI50 (SF-268 CNS): 1.78 µM
TGI (SF-268 CNS): 13.3 µM
GI50 (SF-295 CNS): 1.16 µM
TGI (SF-295 CNS): 3.23 µM
GI50 (SF-539 CNS): 2.12 µM
TGI (SF-539 CNS): 7.66 µM
GI50 (SK-MEL-2 melanoma): 2.14 µM
TGI (SK-MEL-2 melanoma): 11.9 µM
GI50 (SK-MEL-28 melanoma): 2.74 µM
TGI (SK-MEL-28 melanoma): 14.3 µM
GI50 (SK-MEL-5 melanoma): 1.41 µM
TGI (SK-MEL-5 melanoma): 3.28 µM
GI50 (SK-OV-3 ovarian): 3.79 µM
TGI (SK-OV-3 ovarian): 15.6 µM
GI50 (SN12C renal): 2.97 µM
TGI (SN12C renal): 16.5 µM
GI50 (SNB-19 CNS): 3.73 µM
TGI (SNB-19 CNS): 14.5 µM
GI50 (SNB-75 CNS): 4.79 µM
TGI (SNB-75 CNS): 21.3 µM
GI50 (SW-620 colon): 2.77 µM
TGI (SW-620 colon): 12.1 µM
GI50 (T-47D breast): 1.49 µM
TGI (T-47D breast): 18 µM
GI50 (TK-10 renal): 5.13 µM
TGI (TK-10 renal): 17.3 µM
GI50 (U251 CNS): 2.09 µM
TGI (U251 CNS): 10.6 µM
GI50 (UACC-257 melanoma): 3.97 µM
TGI (UACC-257 melanoma): 13.4 µM
GI50 (UACC-62 melanoma): 1.88 µM
TGI (UACC-62 melanoma): 5.01 µM
GI50 (UO-31 renal): 1.39 µM
TGI (UO-31 renal): 7.76 µM
